Measurements published in BindingDB's records for doi:10.7270/Q2WQ028B (Vanderbilt Screening Center For Gpcrs, Ion Channels and …, 2010).

Molecular target: T1, G protein-activated inward rectifier potassium channel 1 (Rattus norvegicus, UniProt P63251)
T1 sequence (P63251 whole entry): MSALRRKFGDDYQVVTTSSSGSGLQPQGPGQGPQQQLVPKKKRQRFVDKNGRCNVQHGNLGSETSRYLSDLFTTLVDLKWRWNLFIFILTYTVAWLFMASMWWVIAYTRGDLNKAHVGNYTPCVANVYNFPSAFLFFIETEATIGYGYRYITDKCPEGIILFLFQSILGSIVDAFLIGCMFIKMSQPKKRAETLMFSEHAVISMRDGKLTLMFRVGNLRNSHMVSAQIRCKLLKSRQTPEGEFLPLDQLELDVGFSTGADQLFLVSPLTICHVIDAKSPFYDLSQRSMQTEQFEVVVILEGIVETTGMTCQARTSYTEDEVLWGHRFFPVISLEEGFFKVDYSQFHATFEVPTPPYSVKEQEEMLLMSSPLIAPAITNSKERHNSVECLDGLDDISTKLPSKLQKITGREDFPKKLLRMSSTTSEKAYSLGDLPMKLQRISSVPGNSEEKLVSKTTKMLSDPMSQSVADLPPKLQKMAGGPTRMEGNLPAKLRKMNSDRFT
Assay: alpha2C agonist potency with rauwolscine blockade, dose response, mechanism study for alpha2C adrenergic receptor project, cell-based, thallium flux (AID 435016)
Details: inactive by the depositor's call

Row | EC50 [µM] | Structure (SMILES)
1 | 41.4 | CCOC(=O)c1ccc(NC(=O)NC(C)C2CCCO2)cc1 (stereo not drawn)
2 | 2.29 | CCSc1nnc(NC(=O)NC(CC)(C(F)(F)F)C(F)(F)F)s1 [1-(5-ethylsulfanyl-1,3,4-thiadiazol-2-yl)-3-[1,1,1-trifluoro-2-(trifluoromethyl)butan-2-yl]urea]
3 | 12.6 | O=c1c(-c2ccc3c(c2)OCCO3)c(C(F)(F)F)oc2cc(O)cc(O)c12 [3-(2,3-dihydro-1,4-benzodioxin-6-yl)-5,7-bis(oxidanyl)-2-(trifluoromethyl)chromen-4-one]
